According to ChEMBL document CHEMBL1201862, “PubChem BioAssay data set” (2004):
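Dose response: 5 concentrations. Exposure: 48 h. Format: 96-well plates. Endpoint: linear interpolation; highest concentration if not reached. GI50 marks 50% less growth.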 Active and inactive are the calls of the source. Cut-off read from the data, not from the text of the source: active = GI50 up to about 1.1 µM and inactive = higher.

What was measured:
Experiment in all cases: NCI-60 cell line screen, 48 h
MOLT-4 = test system: MOLT-4
MDA-MB-231 = test system: MDA-MB-231
SW-620 = test system: SW-620
K562 = test system: K562
RXF 393 = test system: RXF 393
LOX IMVI = test system: LOX IMVI
OVCAR-3 = test system: OVCAR-3
OVCAR-5 = test system: OVCAR-5
SK-MEL-5 = test system: SK-MEL-5
OVCAR-8 = test system: OVCAR-8
HOP-92 = test system: HOP-92
HCC 2998 = test system: HCC 2998
NCI-H226 = test system: NCI-H226
SK-OV-3 = test system: SK-OV-3
UACC-62 = test system: UACC-62
ACHN = test system: ACHN
HOP-62 = test system: HOP-62
SF-539 = test system: SF-539
HCT-116 = test system: HCT-116
A549 = test system: A549

| Structure (SMILES) | GI50 (MOLT-4) | GI50 (MDA-MB-231) | GI50 (SW-620) | GI50 (K562) | GI50 (RXF 393) | GI50 (LOX IMVI) | GI50 (OVCAR-3) | GI50 (OVCAR-5) | GI50 (SK-MEL-5) | GI50 (OVCAR-8) | GI50 (HOP-92) | GI50 (HCC 2998) | GI50 (NCI-H226) | GI50 (SK-OV-3) | GI50 (UACC-62) | GI50 (ACHN) | GI50 (HOP-62) | GI50 (SF-539) | GI50 (HCT-116) | GI50 (A549) |
| --- | --- | --- | --- | --- | --- | --- | --- | --- | --- | --- | --- | --- | --- | --- | --- | --- | --- | --- | --- | --- |
| COc1ccc2cc(CNCCCCCCCCCCCCNCc3ccc4cc(OC)ccc4c3)ccc2c1 | 21.5 µM (inactive) | 23.5 µM (inactive) | 20.7 µM (inactive) | 10.4 µM (inactive) | 14.8 µM (inactive) | 15 µM (inactive) | 21.2 µM (inactive) | 28.4 µM (inactive) | 22.6 µM (inactive) | 15 µM (inactive) | 21.7 µM (inactive) | 13.5 µM (inactive) | 18.5 µM (inactive) | 18.7 µM (inactive) | 21.2 µM (inactive) | 19.6 µM (inactive) | 19.4 µM (inactive) | 17.4 µM (inactive) | 16.7 µM (inactive) | 24.3 µM (inactive) |
| COc1cc2c3c(c4ccc(O)cc4c2cc1OC)[C@@H](O)[C@@H]1CCCN1C3 | < 0.001 µM (active) | < 0.001 µM (active) | < 0.001 µM (active) | 0.00203 µM (active) | 0.00123 µM (active) | < 0.001 µM (active) | 0.00122 µM (active) | < 0.001 µM (active) | < 0.001 µM (active) | < 0.001 µM (active) | 0.0011 µM (active) | < 0.001 µM (active) | < 0.001 µM (active) | 0.00105 µM (active) | 0.00105 µM (active) | < 0.001 µM (active) | < 0.001 µM (active) | < 0.001 µM (active) | < 0.001 µM (active) | < 0.001 µM (active) |
| CN1CC(c2ccccc2)N(CCCCN2CC(c3ccccc3)N(C)CC2c2ccccc2)CC1c1ccccc1 (configuration not stated) | 23.2 µM (inactive) | 58.7 µM (inactive) | 35.2 µM (inactive) | 19.3 µM (inactive) | 21.9 µM (inactive) | 14.8 µM (inactive) | 53.3 µM (inactive) | > 100 µM (inactive) | 31.7 µM (inactive) | 44.3 µM (inactive) | 26.8 µM (inactive) | 24.4 µM (inactive) | 95.7 µM (inactive) | > 100 µM (inactive) | 30.7 µM (inactive) | > 100 µM (inactive) | 28.4 µM (inactive) | 52.7 µM (inactive) | 11.9 µM (inactive) | 33.4 µM (inactive) |
| COc1ccc(-c2c(-c3ccccc3)c(C)nc3nc(SC)nc(SC)c23)cc1OC | 5.81 µM (inactive) | 20.9 µM (inactive) | 6.32 µM (inactive) | 4.54 µM (inactive) | 17.1 µM (inactive) | 11.4 µM (inactive) | 14.4 µM (inactive) | 12.4 µM (inactive) | 4.76 µM (inactive) |  | 4.39 µM (inactive) | 25 µM (inactive) | 17.3 µM (inactive) | 3.72 µM (inactive) | 11.3 µM (inactive) | 19.9 µM (inactive) | 9.08 µM (inactive) | 5.2 µM (inactive) | 6.18 µM (inactive) | 1.4 µM (inactive) |
| COC(=O)[C@@H](NC1(c2ccccc2)c2ccccc2-c2ccccc21)[C@@H](C(=O)OC)N(NC(=O)OCc1ccccc1)C(=O)OCc1ccccc1.COC(=O)[C@@H](NC1(c2ccccc2)c2ccccc2-c2ccccc21)[C@H](C(=O)OC)N(NC(=O)OCc1ccccc1)C(=O)OCc1ccccc1 | > 100 µM (inactive) | > 100 µM (inactive) | > 100 µM (inactive) | > 100 µM (inactive) | > 100 µM (inactive) | > 100 µM (inactive) | > 100 µM (inactive) | > 100 µM (inactive) | > 100 µM (inactive) | > 100 µM (inactive) | > 100 µM (inactive) | 86.9 µM (inactive) |  | > 100 µM (inactive) | > 100 µM (inactive) | > 100 µM (inactive) | > 100 µM (inactive) | > 100 µM (inactive) | > 100 µM (inactive) | > 100 µM (inactive) |
| COC(=O)C1=COC2OC3CC1C2C(C)O3 (configuration not stated) | > 100 µM (inactive) | > 100 µM (inactive) | > 100 µM (inactive) |  | > 100 µM (inactive) | > 100 µM (inactive) | > 100 µM (inactive) | > 100 µM (inactive) | > 100 µM (inactive) | > 100 µM (inactive) | > 100 µM (inactive) | > 100 µM (inactive) | > 100 µM (inactive) | > 100 µM (inactive) | > 100 µM (inactive) | > 100 µM (inactive) | > 100 µM (inactive) | > 100 µM (inactive) | > 100 µM (inactive) | > 100 µM (inactive) |
| C/C1=C\[C@@H](C)C[C@@H](C)OC(=O)[C@@H](C)NC(=O)[C@H](Cc2ccc(O)c(Br)c2)N(C)C(=O)CNC(=O)[C@H](C)C1 | 0.143 µM (active) | < 0.01 µM (active) | < 0.01 µM (active) | < 0.01 µM (active) | < 0.0184 µM (active) | < 0.01 µM (active) | < 0.01 µM (active) | 13 µM (inactive) | < 0.01 µM (active) | 0.137 µM (active) | < 0.01 µM (active) | < 0.01 µM (active) |  | < 0.01 µM (active) |  | < 0.01 µM (active) | < 0.01 µM (active) | < 0.01 µM (active) | < 0.01 µM (active) | < 0.01 µM (active) |
| O=C1CSC2(CC(/C=C/c3cccc([N+](=O)[O-])c3)=NN2c2cccc(S(=O)(=O)O)c2)N1c1nc2ccccc2s1 (configuration not stated) | 22.4 µM (inactive) | 19.1 µM (inactive) | 26.8 µM (inactive) | 28.6 µM (inactive) | 34.2 µM (inactive) | 13.6 µM (inactive) |  | 23.4 µM (inactive) | 28.1 µM (inactive) | 13.8 µM (inactive) | 9.46 µM (inactive) | 35.6 µM (inactive) | 25.4 µM (inactive) |  | 19.1 µM (inactive) | 25.8 µM (inactive) |  | 29.6 µM (inactive) | 32.6 µM (inactive) | 25.8 µM (inactive) |
